BindingDB's records for doi:10.1016/j.ejphar.2004.03.050 (Memorial Sloan-Kettering Cancer Center, 2004)
Several values for one entry are separate records, joined by “and”; a condition that tells them apart may be missing. Identical values can stand only once.

Experiments:
Mu-type opioid receptor = Mu-type opioid receptor (Bos taurus, UniProt P79350)
Opioid receptor delta 1 = Opioid receptor delta 1 (Bos taurus, UniProt F1N083)
Chain of Opioid receptor delta 1 (F1N083 whole entry): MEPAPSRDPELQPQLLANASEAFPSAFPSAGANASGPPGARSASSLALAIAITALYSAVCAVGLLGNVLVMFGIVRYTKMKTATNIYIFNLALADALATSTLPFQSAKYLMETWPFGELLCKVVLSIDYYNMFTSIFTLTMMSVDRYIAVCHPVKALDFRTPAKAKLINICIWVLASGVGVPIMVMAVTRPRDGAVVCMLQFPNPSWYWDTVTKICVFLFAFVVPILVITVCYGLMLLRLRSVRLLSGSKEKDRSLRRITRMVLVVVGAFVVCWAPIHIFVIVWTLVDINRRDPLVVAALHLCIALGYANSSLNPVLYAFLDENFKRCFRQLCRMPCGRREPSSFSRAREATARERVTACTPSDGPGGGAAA

Chain of Mu-type opioid receptor (P79350 whole entry): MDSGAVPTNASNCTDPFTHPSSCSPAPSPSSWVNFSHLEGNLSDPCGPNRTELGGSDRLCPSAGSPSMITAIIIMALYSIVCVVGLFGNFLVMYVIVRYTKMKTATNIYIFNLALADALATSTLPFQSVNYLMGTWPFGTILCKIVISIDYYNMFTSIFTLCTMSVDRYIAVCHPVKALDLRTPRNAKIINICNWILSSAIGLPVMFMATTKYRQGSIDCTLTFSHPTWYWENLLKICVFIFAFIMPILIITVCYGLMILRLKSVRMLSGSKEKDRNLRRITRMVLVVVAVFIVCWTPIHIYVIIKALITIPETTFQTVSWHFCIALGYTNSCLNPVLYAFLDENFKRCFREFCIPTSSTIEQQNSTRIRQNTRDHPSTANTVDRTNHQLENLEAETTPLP

SMILES	Ki (Mu-type opioid receptor)	Ki (Opioid receptor delta 1) [nM]
CC(=O)OC1CCC2C3Cc4ccc(O)c5c4C2(CCN3C)C1O5 (configuration not stated) [6-AcDHM]	1.83 nM and 12.3 nM	
CN1CCC23c4c5ccc(O)c4OC2C(O)CCC3C1C5 (configuration not stated) [CAS_509-60-4]		1000
